Data reported in US20170056380A1, “Systems, Methods, Techniques, and Compounds in Research and Treatment of Portal Hypertension and other Conditions” (priority 2014, published 2017).

How the values were obtained:
[1] = target: T1, eNOS cytochrome c reductase activity (Rattus norvegicus, UniProt Q62600); experiment: NADPH-dependent cytochrome c reductase assay in sinusoidal endothelial cell lysates; type: cell-based
T1 construct: endogenous in cells; host or cells: primary liver sinusoidal endothelial cells from male Sprague-Dawley rats (normal or bile-duct-ligated)
T1 sequence (Q62600 1-1202): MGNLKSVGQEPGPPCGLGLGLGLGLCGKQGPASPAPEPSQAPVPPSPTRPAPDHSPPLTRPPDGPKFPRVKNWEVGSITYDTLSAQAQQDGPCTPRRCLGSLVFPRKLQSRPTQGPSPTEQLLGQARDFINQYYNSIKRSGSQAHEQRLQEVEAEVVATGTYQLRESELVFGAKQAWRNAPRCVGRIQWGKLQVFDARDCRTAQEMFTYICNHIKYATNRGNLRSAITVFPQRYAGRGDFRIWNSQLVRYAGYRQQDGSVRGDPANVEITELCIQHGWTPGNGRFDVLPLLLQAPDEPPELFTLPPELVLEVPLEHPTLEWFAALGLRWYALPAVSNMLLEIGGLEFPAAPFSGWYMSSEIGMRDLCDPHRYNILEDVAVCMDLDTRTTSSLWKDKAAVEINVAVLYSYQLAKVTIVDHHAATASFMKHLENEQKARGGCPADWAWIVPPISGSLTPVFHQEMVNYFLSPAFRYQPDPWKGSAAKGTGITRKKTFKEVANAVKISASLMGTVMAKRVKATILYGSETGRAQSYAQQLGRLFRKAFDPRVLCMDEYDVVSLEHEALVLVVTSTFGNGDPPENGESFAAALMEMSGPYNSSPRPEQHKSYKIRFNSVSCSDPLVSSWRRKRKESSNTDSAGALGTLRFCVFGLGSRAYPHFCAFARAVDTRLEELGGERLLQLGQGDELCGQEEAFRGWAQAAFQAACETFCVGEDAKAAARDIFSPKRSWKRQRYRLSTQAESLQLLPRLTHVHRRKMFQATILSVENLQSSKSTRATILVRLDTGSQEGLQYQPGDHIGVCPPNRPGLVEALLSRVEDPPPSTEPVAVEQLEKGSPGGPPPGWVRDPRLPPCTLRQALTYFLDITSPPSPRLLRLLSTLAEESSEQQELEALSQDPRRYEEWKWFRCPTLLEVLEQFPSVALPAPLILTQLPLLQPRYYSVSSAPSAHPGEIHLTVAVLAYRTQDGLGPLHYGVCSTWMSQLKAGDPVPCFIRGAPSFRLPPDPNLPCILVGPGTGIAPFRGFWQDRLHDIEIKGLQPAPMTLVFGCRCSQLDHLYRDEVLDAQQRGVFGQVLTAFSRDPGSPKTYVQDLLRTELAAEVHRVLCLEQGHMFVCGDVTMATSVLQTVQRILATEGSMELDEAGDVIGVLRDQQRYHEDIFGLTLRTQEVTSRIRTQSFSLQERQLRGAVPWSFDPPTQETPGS
Method: Cell isolation and culture. Sinusoidal endothelial cells were isolated from male Sprague-Dawley rats (450-500 g) (Harlan, Indianapolis, Ind.). In brief, after in situ perfusion of the liver with 20 mg/100 mg pronase (Roche Molecular Biochemicals, Indianapolis, Ind.), followed by collagenase (Worthington Biochemical, Lakewood, N.J.), dispersed cell suspensions were removed from a layered discontinuous density gradient of 8.2 and 15.6% Accudenz (Accurate Chemical and Scientific, Westbury, N.Y.), further purified by centrifugal elutriation (18 ml/min flow), and were grown in medium containing 20% serum (10% horse/calf). The purity of endothelial cells was documented by their uptake of fluorescently labeled di-l-acetoacetylated low-density lipoprotein as described (21). Only primary sinusoidal endothelial isolates of >95% purity were used for study. Experiments were performed with cells frorrr a minimum three different isolations (for all experiments).
NOS activity assay. NOS activity from sinusoidal endothelial cell lysates was assessed by measuring the conversion of L-[3H]arginine to L-[3H]citrulline as described (6) per the manufacturer's instructions (Cayman Chemical). […] Radiolabeled counts per minute of generated L-citrulline were measured and used to determine L-NAME-inhibitable NOS activity (thus, each experiment included total counts and background counts). […] The reductase activities of sinusoidal endothelial cells with or without cicletanine exposure were determined using the NADPH-dependent cytochrome c assay. […] The reduction of cytochrome c was monitored at 550 nm at 25° C. […] Turnover number was calculated using the absorbance change during this 30-s interval and an extinction coefficient of 0.021/μM.

protein kinase G (PKG) = experiment: Phospho-VASP immunoblotting for PKG activity in stellate cells alone or cocultured with sinusoidal endothelial cells; type: cell-based, rat
Method: For coculture experiments, freshly isolated stellate cells and freshly isolated sinusoidal endothelial cells were isolated separately and mixed together on collagen-coated plates and cultured for 5 days. Sinusoidal endothelial cells were plated at a density of 200,000 cells/cm2, and stellate cells were at a density of 65,000 cells/cm2.
Immunoblotting, Immunoblotting was performed by using specified primary antibodies, including anti-eNOS antibody (1:1,000; BD Transduction Laboratories, San Jose, Calif.), anti-phospho-eNOS-Ser^1177 (1:1,000; BD Transduction Laboratories or Cell Signaling Technology), anti-phospho-Akt, anti-Akt (Cell Signaling Technology, Beverly, Mass.), and horseradish peroxidase-conjugated secondary antibody. Specific signals were visualized using enhanced chemiluminescence as per the manufacturer's instructions and were scanned and quantitated with standard software.

- rate of cytochrome c reduction compared with no cicletanine treatment ([1]; CaM stimulation): twofold more
- rate of cytochrome c reduction compared with no cicletanine treatment ([1]; basal level): twofold more
- cytochrome c reductase activity ([1]; cicletanine 100 nM, 2 h): significant increase
Compound: Cc1ncc2c(c1O)COC2c1ccc(Cl)cc1 (centres unmarked) [cicletanine, 3-(4-chlorophenyl)-1,3-dihydro-7-hydroxy-6-methylfuro-(3,4-c) pyridine]
- VASP phosphorylation (protein kinase G (PKG); stellate cells alone): did not alter
- VASP phosphorylation (protein kinase G (PKG); stellate cells cocultured with sinusoidal endothelial cells): stimulated
